Results on 1 compound are retold here after doi:10.1101/2022.06.14.496144v1, “Crystal structure and functional peculiarities of a primordial Orange Carotenoid Protein (OCPX)” (biorxiv, 2022).

Substitutions are numbered along the chain they refer to.

Assay type in all cases: binding
The target of assay [1] is T1, GlOCPX (Gloeobacter kilaueensis, UniProt U5QHX0, E25A).
T1 construct: gene GKIL_2275; full length M1-R322, codon-optimised, E. coli C41(DE3) making ECH or CAN, His tag cut by 3C leaving N-terminal GPH
T1 sequence (U5QHX0 1-322 E25A): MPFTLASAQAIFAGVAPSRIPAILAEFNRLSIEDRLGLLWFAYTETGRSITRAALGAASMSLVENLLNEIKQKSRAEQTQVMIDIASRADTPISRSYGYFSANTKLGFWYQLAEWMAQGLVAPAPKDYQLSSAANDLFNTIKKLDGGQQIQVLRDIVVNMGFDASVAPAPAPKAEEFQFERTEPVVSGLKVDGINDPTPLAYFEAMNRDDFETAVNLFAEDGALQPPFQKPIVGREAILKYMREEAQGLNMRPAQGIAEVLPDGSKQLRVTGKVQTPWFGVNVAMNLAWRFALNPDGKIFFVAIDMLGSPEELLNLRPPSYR
Description: X-ray crystal structure, […] Å. The settings on record: between NTD and CTD; pH 6.5 crystals.

The target in assay [2] is T2, GlOCPX (Gloeobacter kilaueensis, UniProt U5QHX0).
T2 construct: gene GKIL_2275; full length M1-R322, codon-optimised, E. coli C41(DE3) making ECH or CAN, His tag cut by 3C leaving N-terminal GPH
T2 sequence (U5QHX0 1-322): T1 sequence (U5QHX0 1-322 E25A) with A25E
As to the kind of experiment: co-purified holoprotein, SEC with absorbance spectra, photocycle. To be noted: pH 7.6; ECH-producing E. coli.

A further assay concerns the target T3, ΔNTE-GlOCPX (Gloeobacter kilaueensis, UniProt U5QHX0).
T3 construct: gene GKIL_2275; N-terminal extension M1-P17 removed, E. coli C41(DE3) making ECH, His-3C tag
T3 sequence (U5QHX0 18-322): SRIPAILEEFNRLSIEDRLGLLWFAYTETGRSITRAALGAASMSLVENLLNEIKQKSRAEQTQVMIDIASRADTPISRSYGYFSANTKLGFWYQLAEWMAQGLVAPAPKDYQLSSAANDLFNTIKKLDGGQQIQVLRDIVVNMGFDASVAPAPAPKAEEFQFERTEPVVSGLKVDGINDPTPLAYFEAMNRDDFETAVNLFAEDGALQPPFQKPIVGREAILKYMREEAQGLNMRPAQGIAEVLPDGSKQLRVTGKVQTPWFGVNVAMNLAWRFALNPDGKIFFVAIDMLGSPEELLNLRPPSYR
Description: co-purified holoprotein, absorbance, photocycle. To be noted: pH 7.6; ECH-producing E. coli.

As to `CC1=C(/C=C/C(C)=C/C=C/C(C)=C/C=C/C=C(C)/C=C/C=C(C)/C=C/C2=C(C)C(=O)CCC2(C)C)C(C)(C)CCC1` [ECH, echinenone], on GlOCPX [1], the “X-ray crystal structure, 1.7 Å” value was “A well-defined density revealed that the GlOCPX-embedded carotenoid is echinenone (ECH)”. Also, on GlOCPX [2], the “co-purified holoprotein, SEC with absorbance spectra, photocycle” value is “produced GlOCPX in Escherichia coli strains synthesizing ketocarotenoids canthaxanthin (CAN) or echinenone (ECH)”. For the same compound, the “co-purified holoprotein, absorbance, photocycle” value at ΔNTE-GlOCPX is on record as “All samples uniformly contained ECH as a cofactor”.
